Experiments:
Assay type in all cases: in vivo
[1] = system: POLCO: buckwheat, wild (Polygonum convolvulus); assay: Post-Emergent Test I herbicidal activity; details: for GR20 POLCO: Table 4, growth reduction of 20% of plant growth; for GR20 POLCO / GR50 POLCO / GR80 POLCO: 14 days after application, probit analysis; for GR50 POLCO: Table 4, growth reduction of 50% of plant growth; for GR80 POLCO: Table 4, growth reduction of 80% of plant growth
Summary of the method: (§1)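 Visual injury ratings (0 = none, 100 = complete kill) taken 14 d after treatment, compared with untreated plants, feed probit-derived GR20/GR50/GR80. Application: overhead spray, 187 L/ha, highest rate and ½×-1/16× dilutions in acetone-DMSO-based aqueous spray mix with crop oil and surfactant, onto plants grown 7-21 d to first or second true leaf.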

[2] = system: TRZAS: wheat, spring (Triticum aestivum); assay: Post-Emergent Test I herbicidal activity; details: for GR20 TRZAS: Table 4, growth reduction of 20% of plant growth; for GR20 TRZAS / GR50 TRZAS / GR80 TRZAS: 14 days after application, probit analysis; for GR50 TRZAS: Table 4, growth reduction of 50% of plant growth; for GR80 TRZAS: Table 4, growth reduction of 80% of plant growth
Summary of the method: as §1

[3] = system: SCPJU = Scirpus juncoides ROXB. (Japanese bulrush); assay: In-water applied herbicidal activity in transplanted paddy rice; details: for GR50 SCPJU: Table 7, dose to kill or control 50 percent; for GR50 SCPJU / GR90 SCPJU: 21 days after application; for GR90 SCPJU: Table 7, dose to kill or control 90 percent
Experimental: Weed seeds or nutlets of the desired test plant species were planted in puddled soil (mud) prepared by mixing a non-sterilized mineral soil (28 percent silt, 18 percent clay, and 54 percent sand, with a pH of about 7.3 to 7.8 and an organic matter content of about 1.0 percent) and water at a ratio of 100 kilograms (kg) of soil to 19 liters (L) of water. The prepared mud was dispensed in 250 mL aliquots into 480 mL non-perforated plastic pots with a surface area of 86.59 cm^2 leaving a headspace of 2.5 to 3 cm in each pot. Rice seeds were planted in Sun Gro MetroMix 306 planting mixture, which typically has a pH of 6.0 to 6.8 and an organic matter content of about 30 percent, in plastic plug trays. Seedlings at the second or third leaf stage of growth were transplanted into 650 mL of mud contained in 960 mL non-perforated plastic pots with a surface area of 86.59 cm^2 four days prior to herbicide application. The paddy was created by filling the 2.5 to 3 cm headspace of the pots with water. When required to ensure good germination and healthy plants, a fungicide treatment and/or other chemical or physical treatment was applied. The plants were grown for 4-14 d in a greenhouse with an approximate 14-h photoperiod which was maintained at about 29° C. during the day and 26° C. during the night. Nutrients were added as Osmocote (17:6:10, Nitrogen:Phosphorus:Potassium (N:P:K)+minor nutrients) at 2 grams (g) per cup. Water was added on a regular basis to maintain the paddy flood, and supplemental lighting was provided with overhead metal halide 1000-Watt lamps as necessary. The plants were employed for testing when they reached the second or third true leaf stage. Treatments consisted of compounds 45, 34, and 66. For technical grade compounds, a weighed amount, determined by the highest rate to be tested, was placed in an individual 120 mL glass vial and was dissolved in 20 mL of acetone to obtain concentrated stock solutions. […] The concentrated stock solutions obtained were diluted with 20 mL of an aqueous mixture containing 2.5% Agri-dex crop oil concentrate (v/v). Applications were made by injecting an appropriate amount of the stock solution into the aqueous layer of the paddy. Control plants were treated in the same manner with the solvent blank. All treated plant material received the same concentration of acetone and crop oil concentrate. The treated plants and control plants were placed in a greenhouse as described above and water was added as needed to maintain a paddy flood. After approximately 3 weeks, the condition of the test plants, compared with that of the untreated plants, was determined visually and scored on a scale of 0 to 100 percent where 0 corresponds to no injury and 100 corresponds to complete kill. By applying the well-accepted probit analysis as described by J. Berkson in Journal of the […], 48, 565 (1953) and by D. Finney in “Probit Analysis” Cambridge University Press (1952) or by plotting the mean data and fitting a logarithmic curve to the portion of the data where there was a dose response using Microsoft Excel®, the above data can be used to calculate GR50 and GR90 values, which are defined as growth reduction factors that correspond to the effective dose of herbicide required to kill or control 50 percent or 90 percent, respectively, of a target plant.

Structure (SMILES)	Visual Growth Reduction (%)-14 Days after Application POLCO ([1]; Table 4, 17.5 g ai/ha) [%]	Visual Growth Reduction (%)-14 Days after Application POLCO ([1]; Table 4, 35 g ai/ha) [%]	Visual Growth Reduction (%)-14 Days after Application POLCO ([1]; Table 4, 70 g ai/ha) [%]	Visual Growth Reduction (%)-14 Days after Application POLCO ([1]; Table 4, 140 g ai/ha) [%]	GR20 POLCO [1] [g ai/ha]	GR50 POLCO [1] [g ai/ha]	GR80 POLCO [1] [g ai/ha]	Visual Growth Reduction (%)-14 Days after Application TRZAS ([2]; Table 4, 17.5 g ai/ha) [%]	Visual Growth Reduction (%)-14 Days after Application TRZAS ([2]; Table 4, 35 g ai/ha) [%]	Visual Growth Reduction (%)-14 Days after Application TRZAS ([2]; Table 4, 70 g ai/ha) [%]	Visual Growth Reduction (%)-14 Days after Application TRZAS ([2]; Table 4, 140 g ai/ha) [%]	GR20 TRZAS [2] [g ai/ha]	GR50 TRZAS [2] [g ai/ha]	GR80 TRZAS [2] [g ai/ha]	Visual Growth Reduction (%)-14 Days after Application POLCO ([1]; Table 4, 8.75 g ai/ha) [%]	Visual Growth Reduction (%)-14 Days after Application TRZAS ([2]; Table 4, 8.75 g ai/ha) [%]	Mean Visual Injury (%)-21 Days After Application SCPJU ([3]; Table 7, 8.75 g ae/ha) [%]	Mean Visual Injury (%)-21 Days After Application SCPJU ([3]; Table 7, 17.5 g ae/ha) [%]	Mean Visual Injury (%)-21 Days After Application SCPJU ([3]; Table 7, 35 g ae/ha) [%]	Mean Visual Injury (%)-21 Days After Application SCPJU ([3]; Table 7, 70 g ae/ha) [%]	further results
COc1c(N)cc(-c2ccc(Cl)cc2)nc1C(=O)O [Compound 46]	80	90	100	100	<17.5	<17.5	18.6	15	20	40	70	27.1	91.7	310							Visual Growth Reduction (%)-14 Days after Application POLCO ([1]; Table 4, 280 g ai/ha): 100%; Visual Growth Reduction (%)-14 Days after Application TRZAS ([2]; Table 4, 280 g ai/ha): 75%
COc1c(C(=O)O)nc(-c2ccc(Cl)c(OC)c2F)c(F)c1N [Compound 45, 4-amino-6-(4-chloro-2-fluoro-3-methoxyphenyl)-5-fluoro-3-methoxypicolinic acid]	100	100	100	100	<8.75	<8.75	<8.75	20	55	60	65	14.3	53.5	>140	100	10	10	63	93	100	Mean Visual Injury (%)-21 Days After Application SCPJU ([3]; Table 7, 140 g ae/ha): 100%; GR50 SCPJU [3]: 16.8 g ae/ha; GR90 SCPJU [3]: 42.4 g ae/ha
COC(=O)c1nc(Cl)cc(N)c1OC [Compound 1, methyl 4-amino-6-chloro-3-methoxypicolinate]	100	100	100	95	<17.5	<17.5	<17.5	0	0	0	0	>280	>280	>280							Visual Growth Reduction (%)-14 Days after Application POLCO ([1]; Table 4, 280 g ai/ha): 100%; Visual Growth Reduction (%)-14 Days after Application TRZAS ([2]; Table 4, 280 g ai/ha): 0%
COC(=O)c1nc(-c2ccc(Cl)c(OC)c2F)c(F)c(N)c1OC [Compound 34]																	67	90	100	100	Mean Visual Injury (%)-21 Days After Application SCPJU ([3]; Table 7, 140 g ae/ha): 100%; GR50 SCPJU [3]: <8.75 g ae/ha; GR90 SCPJU [3]: 21.1 g ae/ha
COc1c(C(=O)O)nc(-c2ccc(Cl)cc2)c(F)c1N [Compound 47]	100	100	100	100	<8.75	<8.75	<8.75	15	30	45	50	30.6	98.6	>140	100	0					
COc1c(C(=O)OCc2ccccc2)nc(-c2ccc(Cl)c(OC)c2F)c(F)c1N [Compound 66, benzyl 4-amino-6-(4-chloro-2-fluoro-3-methoxyphenyl)-5-fluoro-3-methoxypicolinate]																	94	98	100	100	Mean Visual Injury (%)-21 Days After Application SCPJU ([3]; Table 7, 2.19 g ae/ha): 35%; Mean Visual Injury (%)-21 Days After Application SCPJU ([3]; Table 7, 4.38 g ae/ha): 78%; Mean Visual Injury (%)-21 Days After Application SCPJU ([3]; Table 7, 140 g ae/ha): 100%; GR50 SCPJU [3]: 2.8 g ae/ha; GR90 SCPJU [3]: 7.1 g ae/ha
COC(=O)c1nc(-c2ccc(Cl)cc2F)cc(N)c1OC [Compound 6, Methyl 4-amino-6-(4-chloro-2-fluorophenyl)-3-methoxypicolinate]	100		100	100	10.7	12.4	14.3	0	15	45	50	47.5	109	>140	0	0					

From US9518018B2, “3-alkoxy, thioalkyl and amino-4-amino-6-(substituted)picolinates and their use as herbicides” (Dow AgroSciences LLC, priority 2011, dated 2016)
